PMC9020739, “Identification of a two-component regulatory system involved in antimicrobial peptide resistance in Streptococcus pneumoniae” (PLoS Pathogens, 2022)
≈ marks a conversion by molar mass, not a printed value.

Columns and labels:
[1] = target: BceAB transporter from S. pneumoniae (Streptococcus pneumoniae, UniProt A0A0H2ZN40); type: biochemical; settings: BceAB proteoliposomes; Fig 7B; triplicates, representative of at least two experiments
Procedure: (§1) E. coli BL21(DE3) cells were transformed with pRSF-Duet1-BceAB WT, K48A or E170Q and selected on LB-agar plates containing 50 μg/mL kanamycin. One colony was inoculated into in 2L-baffled flasks containing 500 mL of 2YT medium and 50 μg/mL kanamycin and grown at 37°C, 180 rpm to OD600 of 0.6. Protein expression was induced by adding IPTG to a final concentration of 1 mM. Induction was performed overnight at 25°C and cells were harvested by centrifugation at 7,000 g for 20 min.
(§2) Cells were resuspended in buffer A (HEPES-NaOH 100 mM pH 8.0, NaCl 150 mM) and lysed by passaging them three times through a cell disruptor (Microfluidizer, Microfluidics) at 18,000 psi (or 1,24 x 108 Pa). Undisrupted cells and cell debris were removed by centrifugation at 15,000 x g for 30 min at 4°C. Membranes were harvested from the supernatant after ultracentrifugation at 150,000 x g for 1 h at 4°C. Membranes were resuspended in 20 mL of buffer A and centrifuged once again at 150,000 x g for 1 h at 4°C. Membrane pellets were homogenized in buffer HEPES-NaOH 100 mM pH 8.0, NaCl 150 mM and 20% glycerol, and stored at -80°C.
(§3) For the purification of BceAB, membranes from 0,5 L cell culture were diluted in buffer B (100 mM d’HEPES-NaOH pH 8, 150 mM NaCl, 10% glycerol) to a protein concentration of 4 mg/mL and solubilized with 0.5% (w/v) LMNG for 2 h at 4°C. After ultracentrifugation at 150,000 x g for 1 h at 4°C, the supernatant containing solubilized proteins was diluted four times using buffer B and loaded on Ni^2+-charged immobilized metal-ion affinity chromatography (IMAC) column (1 mL HisTrap HP, Cytiva). The column was washed with 10 mL of buffer B containing 0.005% (w/v) LMNG and 20 mM of imidazole. The column was further washed with the same buffer until OD280nm reached basal levels. BceAB was eluted by buffer B containing 0.005% (w/v) LMNG and an imidazole gradient from 20 to 500 mM of imidazole. Purified BceAB was dialyzed into buffer B containing 0.005% (w/v) LMNG and stored at -80°C.
(§4) The proteoliposomes were prepared as previously described for the transporter BmrA [50]. Proteoliposomes were loaded on sucrose gradient with different layers of 400 μL of 50 mM HEPES-KOH pH 8.0 buffer containing 30, 20, 15 or 10% of sucrose. One mL of proteoliposomes was loaded on the top of the sucrose gradient and ultra-centrifuged at 200,000 x g for 12 h at 4°C. Proteoliposomes were typically collected from the 15% layer and were loaded on SDS-PAGE to analyze and quantify the presence of BceAB by using a standard-curve of purified BceAB and ImageJ.
(§5) These activities were performed as previously described.

[2] = tested on: S. pneumoniae D39 Δtcs01; type: cell-based, Streptococcus pneumoniae; settings: D39 strain; 2-fold broth dilution, Todd-Hewitt medium, 37°C, 15 h; two to four biological replicates, each technical duplicates
Procedure: (§6) The MIC of various antimicrobial peptides for R6, R800 and D39 strains was determined by classical 2-fold broth dilution method. Cells were first grown in Todd-Hewitt medium at 37°C without agitation and in anaerobic conditions until the absorbance reaches approximatively 0.3. Complementation strains were grown with 0.5 μM ComS inducer until the appropriate OD. Cells were then diluted at final OD600nm = 0.002 in 96-well plates containing 300 μL of Todd-Hewitt medium (and 2 μM ComS inducer for the complementation strains) with serial dilutions of antimicrobial peptides. Pneumococcal growth was monitored by a microplate reader (TECAN) at 37°C without agitation. The absorbance was followed at 600 nm every 15 min for 15 h.

[3] = tested on: S. pneumoniae R6 ΔbceAB; type: cell-based, Streptococcus pneumoniae; settings: R6 strain; 2-fold broth dilution, Todd-Hewitt medium, 37°C, 15 h; two to four biological replicates, each technical duplicates
Procedure: as §6

[4] = tested on: S. pneumoniae D39 WT; type: cell-based, Streptococcus pneumoniae; settings: D39 strain
Procedure: as §6

[5] = tested on: S. pneumoniae R800 ΔbceAB; type: cell-based, Streptococcus pneumoniae; settings: R800 strain; 2-fold broth dilution, Todd-Hewitt medium, 37°C, 15 h; at least biological triplicates, each technical duplicates
Procedure: as §6

[6] = tested on: S. pneumoniae D39 ΔbceAB; type: cell-based, Streptococcus pneumoniae; settings: D39 strain; 2-fold broth dilution, Todd-Hewitt medium, 37°C, 15 h; two to four biological replicates, each technical duplicates
Procedure: as §6

[7] = tested on: S. pneumoniae R800 Δhk01; type: cell-based, Streptococcus pneumoniae; settings: R800 strain; 2-fold broth dilution, Todd-Hewitt medium, 37°C, 15 h; at least biological triplicates, each technical duplicates
Procedure: as §6

[8] = tested on: S. pneumoniae R6 WT; type: cell-based, Streptococcus pneumoniae; settings: R6 strain
Procedure: as §6

[9] = tested on: S. pneumoniae D39 ΔbceAB/tcs01; type: cell-based, Streptococcus pneumoniae; settings: D39 strain; 2-fold broth dilution, Todd-Hewitt medium, 37°C, 15 h; two to four biological replicates, each technical duplicates
Procedure: as §6

[10] = tested on: S. pneumoniae R800 bceAB-gfp; type: cell-based, Streptococcus pneumoniae; settings: R800 strain; 2-fold broth dilution, Todd-Hewitt medium, 37°C, 15 h; at least biological triplicates, each technical duplicates
Procedure: as §6

[11] = tested on: S. pneumoniae R6 ΔbceAB/tcs01; type: cell-based, Streptococcus pneumoniae; settings: R6 strain; 2-fold broth dilution, Todd-Hewitt medium, 37°C, 15 h; two to four biological replicates, each technical duplicates
Procedure: as §6

[12] = tested on: S. pneumoniae R6 Δtcs01; type: cell-based, Streptococcus pneumoniae; settings: R6 strain; 2-fold broth dilution, Todd-Hewitt medium, 37°C, 15 h; two to four biological replicates, each technical duplicates
Procedure: as §6

[13] = tested on: S. pneumoniae R800 Δhk01-PcomX-hk01; type: cell-based, Streptococcus pneumoniae; settings: R800 complementation strain, 2 μM ComS inducer; 2-fold broth dilution, Todd-Hewitt medium, 37°C, 15 h; at least biological triplicates, each technical duplicates
Procedure: as §6

[14] = tested on: S. pneumoniae R800 ΔbceAB-Δhk01-PcomX-hk01; type: cell-based, Streptococcus pneumoniae; settings: R800 complementation strain, 2 μM ComS inducer; 2-fold broth dilution, Todd-Hewitt medium, 37°C, 15 h; at least biological triplicates, each technical duplicates
Procedure: as §6

[15] = tested on: S. pneumoniae R800 WT; type: cell-based, Streptococcus pneumoniae; settings: R800 strain; 2-fold broth dilution, Todd-Hewitt medium, 37°C, 15 h; at least biological triplicates, each technical duplicates
Procedure: as §6

[16] = tested on: bceAB and tcs01 genes in S. pneumoniae D39 WT; experiment: Quantification of gene expression by qPCR; type: cell-based, Streptococcus pneumoniae; settings: D39 wild-type; vancomycin 375 ng/ml for 15 min; n = 8
Procedure: S. pneumoniae D39 WT and Δtcs01 strains were routinely grown to OD600nm = 0.3 in THY. Then 1 μg/mL of bacitracin was added to the growth media for up to 30 min. Samples were taken at time points shown in the results section. Next, the cultures were mixed with RNA protect (Qiagen) at 1:1 ratio and incubated at room temperature for 5 min and centrifuged for 10 min at 3, 200 g at 4°C. The supernatant was decanted and the pellet was stored at -80°C. The bacteria were resuspended in 100 μL of sterile Tris-EDTA (TE), containing 15 mg/mL lysozyme (Sigma) then 20 μL of Proteinase K (20 mg/mL) (Roche) were added. The sample was vortexed 5 times for 10 sec at two-minutes intervals. Then 350 μL of lysis buffer from the Nucleospin RNA kit (Macherey-Nagel) were added to the sample with 3.5 μL of β-mercaptoethanol and 25 mg of glass beads (Sigma). The cells were lysed by continual vortexing for 5 min. The mRNA was extracted according to the manufacturer’s instructions. After elution, RNA samples were incubated with 5 μL of DNAse for 20 min at room temperature, then inactivated by heating for 70°C for 5 min. RNA concentration was measured using Nanovue (GE Healthcare). For cDNA synthesis 1 μg of RNA was generally used with the SuperScript III kit (Invitrogen) containing a reverse transcriptase, a set of primers, dNTPs, MgCl2 random hexamers and […] after the cDNA generation according to manufacturer’s instructions. Samples were then stored at -20°C. qPCR measurements were done with 2.5 μL of cDNA mixed with 1 μL (3 μM final) of forward and reverse primers, 5 μL iQ SYBR Green Supermix (BioRad) and 0.5 μL water using the CFX Connect Optical Module (BioRad) program as follows: 95°C for 3 min, then a repeat 40 times of 95°C for 10 sec, 55°C for 30 sec, and a fluorescence reading.

[17] = tested on: Nc1ncnc2c1ncn2[C@@H]1O[C@H](COP(=O)(O)OP(=O)(O)OP(=O)(O)O)[C@@H](O)[C@H]1O; experiment: purified protein, by the assay type; type: biochemical, Streptococcus pneumoniae; settings: other: ATPase/GTPase activity as a function of nucleotide concentration, fitted with positive cooperativity; proteoliposomes; pH 8.0
Procedure: as §1, §2, §3, §4, §5

[18] = tested on: Nc1nc2c(ncn2[C@@H]2O[C@H](COP(=O)(O)OP(=O)(O)OP(=O)(O)O)[C@@H](O)[C@H]2O)c(=O)[nH]1; experiment: purified protein, by the assay type; type: biochemical, Streptococcus pneumoniae; settings: other: ATPase/GTPase activity as a function of nucleotide concentration, fitted with positive cooperativity; proteoliposomes; pH 8.0
Procedure: as §1, §2, §3, §4, §5

[19] = tested on: S. pneumoniae R6 WT and mutant strains; experiment: Susceptibility to HNP-1 (colony counts); type: cell-based, Streptococcus pneumoniae; settings: R6 WT versus mutant strains, 5, 10 or 20 μg/ml, 30 min, 1 h or 2 h, 37°C, preliminary work (S7 Fig)
Procedure: Bacterial cells were routinely grown until OD600nm = 0.3 in THY and 5 mL of culture were centrifuged for 10 min at 5,000 g at 4°C. The pellet was resuspended in 5 ml of sterile PBS buffer and diluted twice at 1/100. 200 μl of the final dilution was incubated for 30 min, 1 h or 2 h at 37°C, 5% CO2 in 96-well plate with 5, 10 or 20 μg/ml of hNP1. Next, 10 μl from the final dilution (control cells at time zero in the absence of HNP-1) and the 96-well plate (cells incubated with HNP1) were plated onto pre-cast THY-agar medium supplemented with 4% defibrinated horse blood and incubated overnight at 37°C, […]. The next day, colonies were counted.

CN[C@H](CC(C)C)C(=O)N[C@H]1C(=O)N[C@@H](CC(N)=O)C(=O)N[C@H]2C(=O)N[C@H]3C(=O)N[C@H](C(=O)N[C@H](C(=O)O)c4cc(O)cc(O)c4-c4cc3ccc4O)[C@H](O)c3ccc(c(Cl)c3)Oc3cc2cc(c3O[C@@H]2O[C@H](CO)[C@@H](O)[C@H](O)[C@H]2O[C@H]2C[C@](C)(N)[C@H](O)[C@H](C)O2)Oc2ccc(cc2Cl)[C@H]1O [vancomycin]
Effect on ATPase activity of BceAB [1]: did not significantly affect | Minimum Inhibitory Concentration, Δtcs01 [2]: 0.25 µg/mL | Minimum Inhibitory Concentration, ΔbceAB [3]: 0.5 µg/mL | Minimum Inhibitory Concentration, WT ([4]; 2-fold broth dilution, Todd-Hewitt medium, 37°C, 15 h, two to four biological replicates, each technical duplicates): 0.25 µg/mL | Fold sensitivity diplayed by the KO strains ([4]; KO strains versus WT MIC): 1 | MIC, ΔbceAB [5]: 0.25 µg/mL (≈ 0.173 µM) | Minimum Inhibitory Concentration, ΔbceAB [6]: 0.25 µg/mL | MIC, Δhk01 [7]: 0.25 µg/mL (≈ 0.173 µM) | Minimum Inhibitory Concentration, WT ([8]; 2-fold broth dilution, Todd-Hewitt medium, 96-well plates, start OD600 0.002, 37°C, A600 followed 15 h, two to four biological replicates, each technical duplicates): 0.5 µg/mL | Fold sensitivity displayed by the KO strains ([8]; KO strains versus WT MIC): 1 | Minimum Inhibitory Concentration, ΔbceAB/tcs01 [9]: 0.25 µg/mL | MIC, bceAB-gfp [10]: 0.25 µg/mL (≈ 0.173 µM) | Minimum Inhibitory Concentration, ΔbceAB/tcs01 [11]: 0.5 µg/mL | Minimum Inhibitory Concentration, Δtcs01 [12]: 0.5 µg/mL | MIC, Δhk01-PcomX-hk01 [13]: 0.25 µg/mL (≈ 0.173 µM) | MIC, ΔbceAB-Δhk01-PcomX-hk01 [14]: 0.25 µg/mL (≈ 0.173 µM) | MIC, WT [15]: 0.25 µg/mL (≈ 0.173 µM) | Transcription of the bceAB genes [16]: no upregulation

BceAB transporter from S. pneumoniae (Streptococcus pneumoniae D39)
Km [17]: 1000 µM | Km [18]: 1300 µM

HNP1: human neutrophil defensin HNP1; purchased from Vivitide
Resistance promoted by BceAB [19]: does not promote resistance
